From ChEMBL document CHEMBL1150102, “Chemical constituents of halophilic facultatively anaerobic bacteria, 1” (J Nat Prod, 1995) come the findings set out here.

SMILES strings stand for the structures. In brackets after ≈: the same amount, converted by molar mass. Activity calls are given as the source filed them. No cut-off for these calls is given here.

One assay deals with P388. The assay is described as follows: Cytotoxicity against mouse P388 cells. Format: functional, cell-based.
Consider `CC(C)C(=O)NCCc1ccc(O)c([N+](=O)[O-])c1`, for which the IC50 amounted to 3 µg/mL (≈ 11.9 µM).

Tested on in the next assay: not listed separately
The assay is described as follows: Inhibition of tyrosin kinase pp60src.
For the molecule `O=C(O)Cc1ccc(O)c([N+](=O)[O-])c1`, the result was inactive. Regarding `O=C(O)c1c[nH]c2ccccc12`, the outcome was inactive. On the same count and under the same terms, the value for `CC(C)CC(=O)NCCc1ccc(O)c([N+](=O)[O-])c1` was “inactive”; that for `O=C(O)Cc1ccccc1` was “inactive”.

Take `CC(C)CC(=O)NCCc1ccc(OC(=O)CC(C)C)c([N+](=O)[O-])c1`: the outcome was inactive. Regarding `CC(C)C(=O)NCCc1ccc(OC(=O)C(C)C)c([N+](=O)[O-])c1`, the outcome was inactive. Same read-out and setting: the value for `O=Cc1c[nH]c2ccccc12` was “inactive”; that for `CC(C)C(=O)NCCc1ccc(O)c([N+](=O)[O-])c1` was “inactive”; that for `COC(=O)Cc1ccc(OC)c([N+](=O)[O-])c1` was “inactive”. The same measure, in the same setting: next, `N#Cc1c[nH]c2ccccc12`: “inactive”.
